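Dose response: 5 concentrations. Exposure: 48 h. Format: 96-well plates. Endpoint: linear interpolation; highest concentration if not reached. The concentration for 50% growth inhibition is given as GI50. Definition used: TGI = concentration required for complete inhibition of growth.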
Assays:
Assay in all cases: NCI tumour cell line growth inhibition, 48 h
PC-3 prostate = system: PC-3 prostate
OVCAR-3 ovarian = system: OVCAR-3 ovarian
SN12C renal = system: SN12C renal
K-562 leukemia = system: K-562 leukemia
SK-MEL-28 melanoma = system: SK-MEL-28 melanoma
RPMI-8226 leukemia = system: RPMI-8226 leukemia
U251 CNS = system: U251 CNS
SW-620 colon = system: SW-620 colon
MCF7 breast = system: MCF7 breast
NCI/ADR-RES ovarian = system: NCI/ADR-RES ovarian

## Clc1cc(OCC23CC4CC(CC(C4)C2)C3)nc(OCC23CC4CC(CC(C4)C2)C3)n1
PC-3 prostate
  TGI: > 100 µM
OVCAR-3 ovarian
  TGI: > 100 µM
SN12C renal
  TGI: > 100 µM
K-562 leukemia
  TGI: > 100 µM
SK-MEL-28 melanoma
  TGI: > 100 µM
RPMI-8226 leukemia
  TGI: > 100 µM
U251 CNS
  TGI: > 100 µM
SW-620 colon
  TGI: > 100 µM
MCF7 breast
  TGI: > 100 µM
NCI/ADR-RES ovarian
  TGI: > 100 µM

## COP(=O)(OC)c1ccc(NCc2cc(O)ccc2O)cc1
PC-3 prostate
  TGI: > 100 µM
OVCAR-3 ovarian
  TGI: 16.5 µM
SN12C renal
  TGI: > 70.6 µM
K-562 leukemia
  TGI: > 96.8 µM
SK-MEL-28 melanoma
  TGI: > 70.2 µM
RPMI-8226 leukemia
  TGI: 62.4 µM
U251 CNS
  TGI: > 72.1 µM
SW-620 colon
  TGI: > 100 µM
MCF7 breast
  TGI: 99.3 µM
NCI/ADR-RES ovarian
  TGI: > 84.5 µM

## COc1cc([C@@H]2c3cc4c(cc3[C@@H](N=Cc3ccc(C(=O)O[C@@H](C(=O)O[C@H]5C[C@@]6(O)[C@@H](OC(=O)c7ccccc7)[C@@H]7[C@]8(OC(C)=O)CO[C@@H]8C[C@H](O)[C@@]7(C)C(=O)[C@H](OC(C)=O)C(=C5C)C6(C)C)[C@@H](NC(=O)c5ccccc5)c5ccccc5)cc3)[C@H]3COC(=O)[C@H]23)OCO4)cc(OC)c1O
OVCAR-3 ovarian
  TGI: 0.164 µM
SN12C renal
  TGI: > 50 µM
K-562 leukemia
  TGI: > 50 µM
SK-MEL-28 melanoma
  TGI: > 50 µM
U251 CNS
  TGI: > 16.9 µM
SW-620 colon
  TGI: > 50 µM
MCF7 breast
  TGI: 7.38 µM
NCI/ADR-RES ovarian
  TGI: > 50 µM

## COc1ccc(-c2nnc(-c3c(C)n(C)n(-c4ccccc4)c3=O)o2)cc1
OVCAR-3 ovarian
  TGI: > 100 µM
SN12C renal
  TGI: > 100 µM
K-562 leukemia
  TGI: > 100 µM
SK-MEL-28 melanoma
  TGI: > 100 µM
RPMI-8226 leukemia
  TGI: > 100 µM
U251 CNS
  TGI: > 100 µM
SW-620 colon
  TGI: > 100 µM

## C/C(=N\NC(=O)c1cccnc1)c1cccc(/C(C)=N/NC(=O)c2cccnc2)n1.CC(=O)[O-].CC(=O)[O-].[Zn+2]
OVCAR-3 ovarian
  GI50: 0.843 µM
  TGI: > 100 µM
SN12C renal
  TGI: > 100 µM
SK-MEL-28 melanoma
  GI50: 29.4 µM
  TGI: > 100 µM
RPMI-8226 leukemia
  TGI: > 100 µM
U251 CNS
  TGI: > 100 µM
SW-620 colon
  TGI: > 100 µM

## O=S(=O)(O)c1cc(Nc2ccnc3ccccc23)c2c(S(=O)(=O)O)cc(S(=O)(=O)O)cc2c1
PC-3 prostate
  TGI: > 100 µM
OVCAR-3 ovarian
  TGI: > 100 µM
SN12C renal
  TGI: > 100 µM
SK-MEL-28 melanoma
  TGI: > 100 µM
RPMI-8226 leukemia
  TGI: > 100 µM
U251 CNS
  TGI: > 100 µM
SW-620 colon
  TGI: > 100 µM
MCF7 breast
  TGI: > 100 µM
NCI/ADR-RES ovarian
  TGI: > 100 µM

## CC(C)N1CCC2(CC1)NNc1ncccc1-n1cccc12
OVCAR-3 ovarian
  TGI: > 100 µM
SN12C renal
  TGI: > 100 µM
K-562 leukemia
  TGI: > 100 µM
SK-MEL-28 melanoma
  TGI: > 100 µM
RPMI-8226 leukemia
  TGI: > 100 µM
U251 CNS
  TGI: > 100 µM
SW-620 colon
  TGI: > 100 µM

## COc1cc(O)c2c(=O)c(OC)c(-c3ccc4c(c3)OCO4)oc2c1OC
PC-3 prostate
  TGI: > 50 µM
OVCAR-3 ovarian
  TGI: > 50 µM
SN12C renal
  TGI: > 50 µM
K-562 leukemia
  TGI: > 50 µM
SK-MEL-28 melanoma
  TGI: > 50 µM
U251 CNS
  TGI: > 50 µM
SW-620 colon
  TGI: > 50 µM
MCF7 breast
  TGI: > 50 µM
NCI/ADR-RES ovarian
  TGI: > 50 µM

## CC(C)(C)OC(=O)N1Cc2cc(O)ccc2C[C@H]1C(=O)O
PC-3 prostate
  TGI: > 100 µM
OVCAR-3 ovarian
  TGI: > 100 µM
SN12C renal
  TGI: > 100 µM
K-562 leukemia
  TGI: > 100 µM
SK-MEL-28 melanoma
  TGI: > 100 µM
U251 CNS
  TGI: > 100 µM
SW-620 colon
  TGI: > 100 µM
MCF7 breast
  TGI: > 100 µM
NCI/ADR-RES ovarian
  TGI: > 100 µM

## c1ccc(CCN2CCN=C2Cc2ccccc2)cc1
OVCAR-3 ovarian
  TGI: > 100 µM
SN12C renal
  TGI: > 100 µM
K-562 leukemia
  TGI: > 100 µM
SK-MEL-28 melanoma
  TGI: > 100 µM
RPMI-8226 leukemia
  TGI: > 100 µM
U251 CNS
  TGI: > 100 µM
SW-620 colon
  TGI: > 100 µM
MCF7 breast
  TGI: > 100 µM
NCI/ADR-RES ovarian
  TGI: > 100 µM

## C[C@H](CN1CC(=O)NC(=O)C1)N1CC(=O)NC(=O)C1
OVCAR-3 ovarian
  TGI: > 100 µM
SN12C renal
  TGI: > 100 µM
K-562 leukemia
  TGI: > 100 µM
SK-MEL-28 melanoma
  TGI: > 100 µM
RPMI-8226 leukemia
  TGI: > 100 µM
U251 CNS
  TGI: > 100 µM
SW-620 colon
  TGI: > 84.4 µM
MCF7 breast
  TGI: > 100 µM
NCI/ADR-RES ovarian
  TGI: > 100 µM

## O=C(NC12CC3CC(CC(C3)C1)C2)C(=O)c1c[nH]c2ccc([N+](=O)[O-])cc12
OVCAR-3 ovarian
  TGI: > 100 µM
SN12C renal
  TGI: > 100 µM
K-562 leukemia
  TGI: > 100 µM
SK-MEL-28 melanoma
  TGI: > 100 µM
RPMI-8226 leukemia
  TGI: > 100 µM
U251 CNS
  TGI: > 46.8 µM
SW-620 colon
  TGI: > 100 µM

## COc1ccc(/C=N\NC(=O)Nc2cccc3ccccc23)cc1
PC-3 prostate
  TGI: > 100 µM
SN12C renal
  TGI: > 100 µM
SK-MEL-28 melanoma
  TGI: > 100 µM
RPMI-8226 leukemia
  TGI: > 100 µM
U251 CNS
  TGI: 36.5 µM
SW-620 colon
  TGI: > 100 µM
MCF7 breast
  TGI: > 100 µM
NCI/ADR-RES ovarian
  TGI: > 100 µM

## CC1C2CC(CC2N)C1(C)C (stereo not drawn)
PC-3 prostate
  TGI: > 100 µM
OVCAR-3 ovarian
  TGI: > 100 µM
SN12C renal
  TGI: > 100 µM
K-562 leukemia
  TGI: > 100 µM
SK-MEL-28 melanoma
  TGI: > 100 µM
U251 CNS
  TGI: > 100 µM
SW-620 colon
  TGI: > 100 µM
MCF7 breast
  TGI: > 100 µM

## O=c1oc2c/c(=C\c3ccccc3)c(=O)c3cccc1c3-2
PC-3 prostate
  TGI: > 100 µM
OVCAR-3 ovarian
  TGI: 63 µM
SN12C renal
  TGI: > 100 µM
SK-MEL-28 melanoma
  TGI: > 100 µM
RPMI-8226 leukemia
  TGI: 88.1 µM
U251 CNS
  TGI: 37.2 µM
SW-620 colon
  TGI: 57.1 µM
NCI/ADR-RES ovarian
  TGI: > 100 µM

## CCOC(=O)c1cn(CC)c2cc3c(cc2c1=O)CCS3(=O)=O
PC-3 prostate
  TGI: > 100 µM
OVCAR-3 ovarian
  TGI: > 100 µM
SN12C renal
  TGI: > 100 µM
K-562 leukemia
  TGI: > 100 µM
SK-MEL-28 melanoma
  TGI: > 100 µM
U251 CNS
  TGI: > 100 µM
SW-620 colon
  TGI: > 100 µM
MCF7 breast
  TGI: > 100 µM
NCI/ADR-RES ovarian
  TGI: > 100 µM

## Cc1oncc1NC1=CC(=O)C(=O)c2ccccc21
PC-3 prostate
  TGI: 10 µM
OVCAR-3 ovarian
  TGI: 4.97 µM
SN12C renal
  TGI: 17.1 µM
K-562 leukemia
  TGI: 27 µM
SK-MEL-28 melanoma
  TGI: 29.2 µM
U251 CNS
  TGI: 17.3 µM
SW-620 colon
  TGI: 17.1 µM
MCF7 breast
  TGI: 9.63 µM
NCI/ADR-RES ovarian
  TGI: > 100 µM

## COC(=O)c1c(O)ccc2c1c1c(n2Cc2ccccn2)C(=O)c2ccccc2C1=O
PC-3 prostate
  TGI: > 100 µM
OVCAR-3 ovarian
  TGI: 64.8 µM
SN12C renal
  TGI: > 100 µM
K-562 leukemia
  TGI: > 100 µM
SK-MEL-28 melanoma
  TGI: 99.2 µM
RPMI-8226 leukemia
  TGI: > 100 µM
U251 CNS
  TGI: > 100 µM
MCF7 breast
  TGI: > 100 µM
NCI/ADR-RES ovarian
  TGI: > 100 µM

## Nc1nn(CC(O)CO)c(=O)s1 (stereo not drawn)
OVCAR-3 ovarian
  TGI: > 100 µM
SN12C renal
  TGI: > 100 µM
K-562 leukemia
  TGI: > 100 µM
SK-MEL-28 melanoma
  TGI: 9.86 µM
RPMI-8226 leukemia
  TGI: > 100 µM
U251 CNS
  TGI: > 100 µM
SW-620 colon
  TGI: > 100 µM

## NNC(=O)CCC(NS(=O)(=O)c1ccc(Cl)cc1)C(=O)NN (stereo not drawn)
PC-3 prostate
  TGI: > 100 µM
OVCAR-3 ovarian
  TGI: > 100 µM
SN12C renal
  TGI: > 100 µM
K-562 leukemia
  TGI: > 100 µM
SK-MEL-28 melanoma
  TGI: > 100 µM
U251 CNS
  TGI: > 100 µM
SW-620 colon
  TGI: > 100 µM
MCF7 breast
  TGI: > 100 µM
NCI/ADR-RES ovarian
  TGI: > 100 µM

## Cn1c(N=[N+]=[N-])cc(=O)n(C)c1=O
PC-3 prostate
  TGI: > 100 µM
OVCAR-3 ovarian
  TGI: > 100 µM
SN12C renal
  TGI: > 100 µM
K-562 leukemia
  TGI: > 100 µM
RPMI-8226 leukemia
  TGI: > 100 µM
U251 CNS
  TGI: > 100 µM
SW-620 colon
  TGI: > 100 µM
NCI/ADR-RES ovarian
  TGI: > 100 µM

## Cc1c(O)c(=O)ccn1CCc1c[nH]c2ccccc12
PC-3 prostate
  TGI: > 100 µM
K-562 leukemia
  TGI: 66.7 µM
RPMI-8226 leukemia
  TGI: 29.8 µM
U251 CNS
  TGI: > 100 µM
SW-620 colon
  TGI: > 100 µM
MCF7 breast
  TGI: 33.2 µM
NCI/ADR-RES ovarian
  TGI: 35.6 µM

## CN(C)CCCNc1cnc2cc3ccccc3cc2n1
PC-3 prostate
  TGI: 45.6 µM
OVCAR-3 ovarian
  TGI: > 100 µM
SN12C renal
  TGI: > 100 µM
K-562 leukemia
  TGI: 70.2 µM
SK-MEL-28 melanoma
  TGI: 81.5 µM
RPMI-8226 leukemia
  TGI: 82.2 µM
U251 CNS
  TGI: > 100 µM
SW-620 colon
  TGI: > 100 µM
MCF7 breast
  TGI: 44.8 µM
